# Reference: US20250064907A1, “THERAPEUTIC VACCINES FOR TREATMENT OF CHRONIC INFLAMMATORY DISEASES” (ATHEROVAX, LLC, priority 2023, published 2025)
# Entries after “also recorded” stand apart in the source; their conditions may differ. Where no end group is shown, it is not given here.
# Experiments:
# [1] = Blood coagulation parameters after inferior vena cava ligation; assay type: in vivo, Lewis rats; settings: across doses, result in words
# Method: (§1) Adult Lewis rats weighing 200-250 g were randomly distributed into three treatment groups with 4 male and 4 female rats in each group. Group 1 received 1.0 mL saline subcutaneously on days 0 and 14. Group 2 received 1.0 mL saline with 0.025 mg AtheroVax peptide (SEQ ID NO: 18) and 0.025 mg aluminum hydroxide adjuvant on days 0 and 14. Group 3 received 1.0 mL saline with 0.075 mg AtheroVax peptide (SEQ ID NO: 18) and 0.075 mg aluminum hydroxide adjuvant on days 0 and 14. […] The abdominal cavity was sutured immediately after the ligation. The rats were euthanized 4 hours after dressing.
# (§2) The thrombus was removed from the rats and wet weight determined. In addition, blood was recovered from the rats and coagulation parameters prothrombin time (PT), thrombin time (TT), and fibrinogen were measured.
# (§3) Statistical analysis of mean and standard deviation for male, female, and combined values were calculated for each of the coagulation parameters. Pairwise comparisons using the students T-test were performed using Excel. Significance was determined if the p-value is less than 0.05.
# thrombus = test: Inferior vena cava ligation thrombus, wet weight; assay type: in vivo, Lewis rats; settings: for Thrombus (wet weight): 4 hours after ligation, saline 0.015 ± 0.001
# Method: as §1, §2, §3
# IL-6 = IL-6 ELISA in rat colitis model; assay type: in vivo; settings: for tissue resident IL-6: colon tissue
# Method: (§4) Rats were vaccinated with a human sTNFR2 peptide, DFALPVEKPLCLOR (SEQ ID NO: 18), targeting the human sTNFR2 peptide. The rats were injected with 25 μg of the peptide subcutaneously with 25 μg Alum as adjuvant in PBS 10 days before initiating colitis. The studies were performed in accordance with the recommendations of the Animal Care and Use Committee of Tbilisi State Medical University. Briefly, the colitis was induced by introduction of 4% acetic acid at 24-hour intervals for three days into the colon under light anesthesia (50 mg/kg ketamine HCl and 5 mg/kg xylaxine). Injections were intrarectal through 2 mm diameter, 6-8 cm long polyethylene catheter to deliver 1 mL solution. See Cagin et al., Exp. Ther. Med. 12 (5): 2958-2964 (2016).
# (§5) TNFα and IL-6 cytokines were measured with ELISA kits according to the manufacturer's instructions (Invitrogen). The ELISA plates were developed with tetramethylbenzidine (TMB) substrate and absorbance was read at 450 nm using an ELx808 Ultra Microplate Reader (BioTek Instruments GmbH, Lucerne, Switzerland). […] Reduction in TNFα is consistent with loss of sTNFR2 binding.
# (§6) All values reported are mean and standard error of the mean. Group comparisons are either two-tailed t-test or ANOVA calculated using Excel.
# [2] = test system: Rat Colitis Model of Ulcerative Colitis; test: Rat colitis model of ulcerative colitis: visual and gross observations; assay type: in vivo
# Method: as §4
# The study design included 4 treatment groups:
# Group B: alum only 10 day prior, followed by colitis
# Group C: sTNFR2 peptide (SEQ ID NO: 18)+alum 10 day prior, followed by colitis
# Group D: no vaccine and no colitis
# rat colon tissue = test: Colon histology, rat colitis model; assay type: in vivo; settings: for colon micrographs (H&E, Masson's trichrome): tissue loss and inflammation: administered 10 days prior to initiating colitis, result in words, listed as sTNR2 peptide
# Method: as §4
# Colon samples were fixed in 10% neutral buffered formalin for 24 hours at room temperature and embedded in paraffin. Tissue sections, 5 μm thick, were stained with hematoxylin and eosin (H&E), Masson's trichrome, and Periodic Acid-Schiff (PAS) according to the manufacturer's protocols. Histological evaluation of colons were assigned scores, (a score of 1 is normal and a score of 4 is severe pathology) for the number of animals with pathology >2, average pathology score, pathology distribution, and average inflammatory score (Table 7).
# TNFα = TNFα ELISA in rat colitis model; assay type: in vivo; settings: for tissue resident TNFα: colon tissue; for reduction in TNFα: vaccinated animals
# Method: as §4, §5, §6
# [3] = test system: regulatory T cells (Tregs); test: FoxP3 immunohistochemistry of colon, rat ulcerative colitis model; assay type: in vivo; settings: 75 μg peptide and alum adjuvant one week prior to colitis; colon collected 8 days after initiation; vs unvaccinated
# Method: These studies were performed in accordance with the recommendations of the Animal Care and Use Committee of Tbilisi State Medical University. Colitis was initiated following introduction of 4% acetic acid at 24-hour intervals for three days into colon under light anesthesia (50 mg/kg ketamine HCl and 5 mg/kg xylaxine). Injections were intrarectal through 2 mm diameter, 6-8 cm long polyethylene catheter to deliver 1 mL solution.
# Colon samples were fixed in 10% neutral buffered formalin for 24 hours at room temperature and embedded in paraffin. Tissue sections 5 μm thick were stained with hematoxylin and eosin (H&E), Masson's trichrome, and Periodic Acid-Schiff stain (PAS) according to the manufacturer's protocols. The immunohistochemistry utilized a FoxP3 rabbit monoclonal antibody, ab215206, obtained from Abcam (Boston, MA) followed by a goat anti-rabbit secondary antibody conjugated with peroxidase.
# [4] = circulating blood, vaccinated vs control animals, result in words
# [5] = result in words, listed as AtheroVax
# [6] = score of 1 is normal, 4 is severe pathology, colitis only group 4
substance,measurement,setting,value
DFALPVE/KPLCLQR (DFALPVEKPLCLQR; not fully specified; listed as Homo sapiens) [AtheroVax peptide (SEQ ID NO: 18)],fibrinogen,[1],elevation
same,prothrombin times,[1],increased
same,thrombin time,[1],decreased
same,Thrombus (wet weight),"thrombus; Grp. 2, 25 μg peptide + adjuvant days 0 and 14",0.011±0.001 grams
same,Thrombus (wet weight),"thrombus; Grp. 3, 75 μg peptide + adjuvant days 0 and 14",0.007±0.001 grams
same,thrombus weight,"thrombus; across doses, treatment prior to initiation of thrombosis, result in words",dose dependent smaller
same,IL-6 (mean ± SEM),"IL-6; ELISA, rat colitis model, injection 10 days before colitis, colitis only group 6.46 ± 0.22",1.76 ± 0.13
same,circulating levels of IL-6,IL-6; [4],significantly lower
same,tissue resident IL-6,IL-6; result in words,significantly lower
same,tissue resident IL-6,IL-6; [5],significant reductions
same,reduction in IL-6,"IL-6; vaccinated animals, result in words",significant reductions
same,elevations in body temperature,"[2]; rats, 25 μg peptide with 25 μg Alum 10 days before colitis",significantly prevented
same,loss of body weight,"[2]; rats, 25 μg peptide with 25 μg Alum 10 days before colitis, visual observations",significantly prevented
same,"gross colon observations (hyperemic, edematous, thickened, sharply increased volume)","[2]; rats, peptide + alum 10 days before colitis, compared with Group A (unvaccinated)",not associated
same,Bleeding,"[2]; rats, subcutaneous injection 10 days before 4% acetic acid colitis, peptide 25 μg with 25 μg Alum",Hemoccult Negative
same,Stool,"[2]; rats, subcutaneous injection 10 days before 4% acetic acid colitis, peptide 25 μg with 25 μg Alum, listed as sTNFR2 peptide (SEQ ID NO: 18)+alum",Normal
same,Stool,"[2]; rats, subcutaneous injection 10 days before 4% acetic acid colitis, peptide 25 μg with 25 μg Alum, listed as sTNR2 peptide (SEQ ID NO: 18)+alum adjuvant",normal stools
same,integrity of the colon and outcomes in the rat colitis model,"[2]; vaccinated vs control animals, result in words",preserved integrity oof the colon and improved outcomes
same,"colon micrographs (H&E, Masson's trichrome): tissue loss and inflammation",rat colon tissue,significant protection against inflammation
same,"colon micrographs (H&E, Masson's trichrome): tissue loss and inflammation",rat colon tissue; (SEQ ID NO: 18) and alum adjuvant,significant protective effect
same,Number animals with pathology >2 (1-5),"rat colon tissue; rat colitis model, colon histology",5
same,Average Inflammatory Score (1-4),rat colon tissue; [6],2
same,Average Pathology Score (1-4),rat colon tissue; [6],1
same,Pathology Distribution (1-4),rat colon tissue; [6],2
same,TNFα (mean ± SEM),"TNFα; ELISA, rat colitis model, injection 10 days before colitis, colitis only group 29.20 ± 0.65",1.12 ± 0.13
same,circulating levels of TNFα,TNFα; [4],significantly lower
same,tissue resident TNFα,TNFα; result in words,significantly lower
same,tissue resident TNFα,TNFα; [5],significant reductions
same,reduction in TNFα,TNFα; result in words,significant reductions
same,reduction in TNFα,"TNFα; result in words, listed as sTNFR2 peptide (SEQ ID NO: 18)+alum",significant reduction
same,intensity of FoxP3 (Treg) staining in colon,[3],less intense; also recorded: do not stain as intensely
same,number of FoxP3 positive cells in colon,[3],fewer cells; also recorded: reduced; also recorded: lower frequencies
